Data: US20080194585A1, “Fungicidal Pyrazine Derivatives” (priority 2005, published 2008)
Marks after values point to notes of the source that are not given here.

Key:
Septoria tritici = assay: Test J: wheat leaf blotch, preventive spray on wheat seedlings; format: in vivo
Description: A dash (-) indicates no test results.

Plasmopara viticola = assay: Test D: grape downy mildew, spray after inoculation of grape seedlings; format: in vivo
Description: Upon removal, disease ratings were made. […] A dash (-) indicates no test results.

Pythium aphanidermatum = assay: Test A: bluegrass pythium blight, preventive spray on bluegrass seedlings
Rhizoctonia oryzae = assay: Test G: turf brown patch, preventive spray on creeping bent grass seedlings
Description: (the causal agent of turf brown patch) and incubated in a saturated atmosphere at 27° C. for 24 h, and then moved to a growth chamber at 27° C. for 5 days, after which disease ratings were made.

Phytophthora infestans = assay: whole plant or invertebrate; format: in vivo
[1] = system: Puccinia recondita f. sp. tritici; assay: Test K: wheat leaf rust, preventive spray on wheat seedlings
Septoria nodorum = assay: Test H: wheat glum blotch, preventive spray on wheat seedlings
Description: (the causal agent of wheat glum blotch) and incubated in a saturated atmosphere at 20° C. for 48 h, and then moved to a growth chamber at 22° C. for 5 days, after which disease ratings were made.

[2] = system: Colletotrichum orbiculare; assay: Test B: cucumber Colletotrichum anthracnose, preventive spray on cucumber seedlings
Botrytis cinerea = assay: Test E: tomato botrytis, preventive spray on tomato seedlings
Sclerotinia sclerotiorum = assay: Test C: cucumber white mold, preventive spray on cucumber seedlings
[3] = system: Erysiphe graminis f. sp. tritici; assay: Test L: wheat powdery mildew, preventive spray on wheat seedlings

Row | Compound | Test J disease control rating (Septoria tritici; 200 ppm) [%] | Test D disease control rating (Plasmopara viticola; 200 ppm) [%] | Test A disease control rating (Pythium aphanidermatum; 200 ppm) [%] | Test G disease control rating (Rhizoctonia oryzae; 200 ppm) [%] | Test F disease control rating (Phytophthora infestans; 200 ppm) [%] | Test K disease control rating ([1]; 200 ppm) [%] | Test H disease control rating (Septoria nodorum; 200 ppm) [%] | Test B disease control rating ([2]; 200 ppm) [%] | Test E disease control rating (Botrytis cinerea; 200 ppm) [%] | Test C disease control rating (Sclerotinia sclerotiorum; 200 ppm) [%] | Test L disease control rating ([3]; 200 ppm) [%] | also measured
1 | CC(C)Cn1c(C(C)(C)C)c(Cl)nc(-n2cccn2)c1=O [compound 203] | 0 | 12 | 74 | 0 | 0 | 0 | 0 | 0 | 0 | 0 | 0 | –
2 | CC(C)Cn1c(C(C)C)c(Cl)nc(-n2cccn2)c1=O [compound 204] | 90 | 12 | 0 | 95 | 0 | 98 | 0 | 0 | 98 | 0 | 99 | –
3 | Cc1cccc(C)c1-c1c(Cl)nc(-n2cncn2)c(=O)n1CC(C)C [compound 205] | 100 | 12 | 0 | 85 | 0 | 97 | 0 | 0 | 100 | 0 | 81 | –
4 | CC(C)Cn1c(C(C)(C)C)c(Cl)nc(-n2cncn2)c1=O [compound 206] | 3 | 8 | 0 | 0 | 0 | 0 | 0 | 0 | 0 | 0 | 56 | –
5 | CC(C)Cn1c(C(C)C)c(Cl)nc(-n2cncn2)c1=O [compound 207] | 70 | 8 | 0 | 47 | 0 | 0 | 0 | 0 | 50 | 0 | 95 | –
6 | Cc1ccnc(-c2nc(Cl)c(-c3c(F)cccc3F)n(CC(C)C)c2=O)c1 [compound 208] | 100 | 12 | 0 | 0 | 0 | 88 | 69 | 46 | 92 | 0 | 0 | –
7 | Cc1cccnc1-c1nc(Cl)c(-c2c(F)cccc2F)n(CC(C)C)c1=O [compound 210] | 1 | 16 | 0 | 0 | 0 | 0 | 0 | 0 | 0 | 0 | 0 | –
8 | COC=C(C)n1c(-c2c(F)cccc2F)c(Cl)nc(-n2cccn2)c1=O [compound 211] | – | – | – | – | – | – | – | – | – | – | – | Test J disease control rating (Septoria tritici; 40 ppm (*)): 25* %; Test D disease control rating (Plasmopara viticola; 40 ppm (*)): 4* %; Test A disease control rating (Pythium aphanidermatum; 40 ppm (*)): 0* %; Test G disease control rating (Rhizoctonia oryzae; 40 ppm (*)): 0* %; Test F disease control rating (Phytophthora infestans; 40 ppm (*)): 0* %; Test K disease control rating ([1]; 40 ppm (*)): 27* %; Test H disease control rating (Septoria nodorum; 40 ppm (*)): 0* %; Test B disease control rating ([2]; 40 ppm (*)): 0* %; Test E disease control rating (Botrytis cinerea; 40 ppm (*)): 0* %; Test C disease control rating (Sclerotinia sclerotiorum; 40 ppm (*)): 0* %; Test L disease control rating ([3]; 40 ppm (*)): 0* %
9 | COC=C(C)n1c(-c2c(F)cccc2F)c(Cl)nc(-n2cncn2)c1=O [compound 212] | – | – | – | – | – | – | – | – | – | – | – | Test J disease control rating (Septoria tritici; 40 ppm (*)): 0* %; Test D disease control rating (Plasmopara viticola; 40 ppm (*)): 8* %; Test A disease control rating (Pythium aphanidermatum; 40 ppm (*)): 0* %; Test G disease control rating (Rhizoctonia oryzae; 40 ppm (*)): 0* %; Test F disease control rating (Phytophthora infestans; 40 ppm (*)): 0* %; Test K disease control rating ([1]; 40 ppm (*)): 0* %; Test H disease control rating (Septoria nodorum; 40 ppm (*)): 0* %; Test B disease control rating ([2]; 40 ppm (*)): 0* %; Test E disease control rating (Botrytis cinerea; 40 ppm (*)): 0* %; Test C disease control rating (Sclerotinia sclerotiorum; 40 ppm (*)): 0* %; Test L disease control rating ([3]; 40 ppm (*)): 0* %
